Patent US4783462A, “3(2H)pyridazinone, and anti-allergic agent containing it” (Nissan Chemical Industries Ltd., priority 1985, dated 1988)

Assays:
LTC4 = test: Antagonism in isolated guinea-pig trachea, Test method (i) (Table 3, given as LTC4 antagonism); type: cell-based; conditions: test compound 10^-5 g/ml, given as LTC4 antagonisms, 5 min; for inhibition at 10 µg/mL: Cavia porcellus
Experimental: (§1) (i) LTC4 and LTD4 antagonisms in guinea-pig trachea
(§2) Antagonisms for LTC4 and LTD4 were determined in isolated guinea-pig trachea prepared as spiral strip. Tracheal preparations were suspended under 1 g tension in 10 ml organ baths and they were incubated for 1 hr prior to use. Contractile responses to LTC4 (2×10^-8 g/ml) and LTD4 (2×10^-8 g/ml) were obtained after the maximal response to histamine (10^-4 M). Test compounds dissolved in 100% dimethyl sulfoxide were added to the organ baths (final concentration of 10^-5 g/ml or 10^-6 g/ml) 5 min prior to LTC4 and LTD4 addition, and then contractile responses to LTC4 and LTD4 were compared with those of control which was obtained from a paired trachea in the absence of test compounds. LTC4 - and LTD4 -induced contractions were expressed as a percentage of the maximal response to histamine. The antagonism was determined as follows:
(§3) Antagonism (%)=(1.0-% contraction in test/% contraction in […]

LTD4 [1] = test: LTD4 antagonism in isolated guinea-pig trachea with indomethacin, Test method (ii) (Table 4); type: cell-based; conditions: Cavia porcellus, 0.5 h, LTD4 2×10^-8 g/ml, test compound 10^-6 g/ml, 30 min prior, 5 μmol indomethacin
Experimental: (ii) LTD4 antagonism in guinea-pig trachea
Antagonism for LTD4 was determined in isolated guinea-pig trachea prepared as spiral strip. Tracheal preparations were suspended under 1 g tension in 10 ml organ baths containing 5 μmol of indomethacin and they were incuated for 1 hr prior to use. Contractile responses to LTD4 (2×10^-8 g/ml) were obtained after the maximal response to histamine (10^-4 M). Test compounds dissolved in 100% dimethyl sulfoxide were added to the organ baths (final concentration of 10^-6 g/ml) 30 min prior to LTD4 addition, and then contractile responses to LTD4 were compared with those of control which was obtained from a paired trachea in the absence of test compounds. LTD4 -induced contractions were expressed as a percentage of the maximal response to histamine. The antagonism was determined as follows:
as §3

[2] = tested on: anaphylactic bronchoconstriction in passively sensitized guinea-pig; test: Effect on anaphylactic bronchoconstriction in passively sensitized guinea-pig; type: in vivo; conditions: 2 mg/kg i.v.
Experimental: (iii) Effect on anaphylactic bronchoconstriction in passively sensitized guinea-pig
Male guinea-pigs (350-450 g) were passively sensitized with intravenous (i.v.) injection of 0.125 ml rabbit anti-EA (egg albumin) serum (Cappel Laboratories) 1 day preceding the experiment. […] Sensitized guinea-pigs were anaesthetized with intraperitoneal injection of urethane (1.5 g/kg). The right jugular vein was cannulated for the administration of the all agents and trachea was cannulated to record total pulmonary resistance. Guinea-pigs were artificially ventilated by a small animal respirator (Shinano, Model SN-480-7) set at a stroke volume of 5 ml and a rate of 50 breaths per min. […] The increase in air overflow volume was expressed as a percentage of the maximum bronchoconstriction obtained by clamping off the trachea. Following surgical preparation, the animals were pretreated with indomethacin (1.0 mg/kg, 10 min), pyrilamine (2 mg/kg, 6 min) and propranolol (0.1 mg/kg, 5 min) prior to the EA challenge (0.1 or 10 mg/kg). All test compounds, 2 mg/kg in 3% Tween 80 or 3% PEG-400, were administered 1 min before the EA challenge. Inhibition (%) of bronchoconstriction was determined as follows: Inhibition (%)=(1.0%-maximum bronchoconstriction in test/% maximum bronchoconstriction in control)×100. The maximum bronchoconstriction was obtained within 20 min after the EA challenge.
In the Table, the dose of EA was 10 mg/kg, and each compound was dissolved or suspended in 3% Tween 80.
The dose of EA was 0.1 mg/kg.

ddY strain male mice = test: Acute toxicity test, Test method-(2), intraperitoneal; type: in vivo; conditions: 7 days
Experimental: The lethal ratio was determined in ddY strain male mice (4 weeks old) at 7 days after the intraperitoneal injection of test compounds.

LTD4 [3] = test: LTD4 antagonism in isolated guinea-pig trachea, Test method (i) (Table 4, values with asterisk); type: cell-based; conditions: Cavia porcellus, 5 min, test compound 10^-6 g/ml, 5 min prior
Experimental: as §1, §2, §3

[4] = Table 5-(2), EA 0.1 mg/kg, Tween 80
[5] = Table 5-(2), EA 0.1 mg/kg, PEG-400
[6] = Table 5-(1), EA 10 mg/kg, 3% Tween 80

Row | SMILES | inhibition at 1 µg/mL (LTD4 [1]) [%] | inhibition at 10 µg/mL (LTC4) [%] | also measured
1 | CCCc1cc(C(=O)O)ccc1OCCCNc1cnn(C(C)C)c(=O)c1Cl [Compound No. 41, 4-chloro-5-[3-(2-n-propyl-4-carboxyphenoxy)propylamino]-2-i-propyl-3(2H)pyridazinone] | 82 | – | Antagonism (%) (LTC4): 100%; Inhibition (%) [2, 4]: 31%; Lethal ratio (Death number/Experimental number) (ddY strain male mice; 200 mg/kg intraperitoneal): 0/2
2 | CCCc1cc(C(N)=O)ccc1OCCCNc1cnn(C(C)C)c(=O)c1Cl [Compound No. 42, 4-Chloro-5-[3-(2-n-propyl-4-carbamoylphenoxy)propylamino]-2-i-propyl-3(2H)pyridazinone] | 76 | 95 | Inhibition (%) [2, 5]: 31%; Lethal ratio (Death number/Experimental number) (ddY strain male mice; 200 mg/kg intraperitoneal): 0/2; Lethal ratio (Death number/Experimental number) (ddY strain male mice; 400 mg/kg intraperitoneal): 0/1
3 | CCCc1cc(C(=O)OC)ccc1OCCCNc1cnn(C(C)C)c(=O)c1Cl [Compound No. 44, 4-choloro-5-[3-(2-n-propyl-4-methoxycarbonylphenoxy)propylamino]-2-i-propyl-3(2H)pyridazinone] | 63 | 90 | Lethal ratio (Death number/Experimental number) (ddY strain male mice; 200 mg/kg intraperitoneal): 0/1; Lethal ratio (Death number/Experimental number) (ddY strain male mice; 400 mg/kg intraperitoneal): 0/1
4 | CCCc1cc(C(=O)OCC)ccc1OCCCNc1cnn(C(C)C)c(=O)c1Cl [Compound No. 64, 4-chloro-5-[3-(2-n-propyl-4-ethoxycarbonylphenoxy)propylamino]-2-i-propyl-3(2H)pyridazinone] | – | 87 | Inhibition (%) [2, 4]: 56%
5 | CCCc1cc(C(=O)O)ccc1OCCCNc1cnn(C(C)C)c(=O)c1Cl [Compound No. 67] | – | 99 | Inhibition (%) [2, 4]: 62%
6 | CCc1cc(C#N)ccc1OCCCNc1cnn(C(C)C)c(=O)c1Cl [Compound No. 98] | 80 | 89 | –
7 | CCCCc1cc(C(=O)O)ccc1OCCCNc1cnn(C(C)C)c(=O)c1Br [Compound No. 127] | – | – | inhibition at 1 µg/mL (LTD4 [3]): 91%
8 | CCCc1cc(C(=O)OC)ccc1OCC(=O)CNc1cnn(C(C)C)c(=O)c1Cl [Compound No. 161, 4-Chloro-5-[3-(2-n-propyl-4-methoxycarbonylphenoxy)-2-oxopropylamino]-2-i-propyl-3(2H)pyridazinone] | – | 71 | Inhibition (%) [2, 4]: 20%
9 | COc1cccc(OCCCOc2cnn(C(C)(C)C)c(=O)c2Cl)c1 [compound 27] | – | 65 | Inhibition (%) [2, 6]: 23%; Lethal ratio (Death number/Experimental number) (ddY strain male mice; 100 mg/kg intraperitoneal): 0/2; Lethal ratio (Death number/Experimental number) (ddY strain male mice; 200 mg/kg intraperitoneal): 0/2
10 | CCn1ncc(OCCCOc2cccc(OC)c2)c(Cl)c1=O [compound 28] | – | 61 | Inhibition (%) [2, 6]: 17%; Lethal ratio (Death number/Experimental number) (ddY strain male mice; 200 mg/kg intraperitoneal): 0/2; Lethal ratio (Death number/Experimental number) (ddY strain male mice; 400 mg/kg intraperitoneal): 0/1
11 | CCCc1cc(C(=O)OC)ccc1OCCCNc1cnn(C)c(=O)c1Cl [compound 43] | – | 63 | Inhibition (%) [2, 6]: 24%
12 | CCCc1cc(C#N)ccc1OCCCNc1cnn(CC)c(=O)c1Cl [compound 47] | – | 99 | Inhibition (%) [2, 6]: 28%; Lethal ratio (Death number/Experimental number) (ddY strain male mice; 200 mg/kg intraperitoneal): 0/2; Lethal ratio (Death number/Experimental number) (ddY strain male mice; 400 mg/kg intraperitoneal): 0/2
13 | CCOc1ccccc1OCCCNc1cnn(CC)c(=O)c1Cl [compound 51] | – | 82 | Inhibition (%) [2, 6]: 15%
14 | COc1ccc(CCNc2cnn(C(C)C)c(=O)c2Cl)cc1 [compound 55] | – | 72 | Inhibition (%) [2, 6]: 26%
15 | CCCc1cc(C#N)ccc1OCCCNc1cnn(C(C)C)c(=O)c1Cl [compound 60] | – | 98 | Inhibition (%) [2, 6]: 15%
16 | CCCc1cc(C#N)ccc1OCCCOc1cnn(CC)c(=O)c1Cl [compound 65] | – | 98 | Inhibition (%) [2, 4]: 27%
17 | CCOc1ccccc1OCCCNc1cnn(C(C)C)c(=O)c1Cl [compound 71] | – | 88 | Inhibition (%) [2, 4]: 26%
18 | CCCc1cc(C(=O)O)ccc1OCCCN(C)c1cnn(C(C)C)c(=O)c1Cl [compound 74] | – | 73 | Inhibition (%) [2, 4]: 50%
19 | CCCc1cc(C(=O)OC)ccc1OCCCOc1cnn(C(C)C)c(=O)c1Cl [compound 85] | – | 78 | Inhibition (%) [2, 4]: 23%
20 | CCc1cc(C(N)=O)ccc1OCCCNc1cnn(C(C)C)c(=O)c1Cl [compound 102] | – | 93 | Inhibition (%) [2, 5]: 73%
21 | CCn1ncc(NCCCOc2ccc(C(=O)OC)cc2C(C)C)c(Cl)c1=O [compound 103] | – | 93 | Inhibition (%) [2, 5]: 69%
22 | CCCc1cc(OC)ccc1OCCCNc1cnn(C(C)C)c(=O)c1Cl [compound 105] | 52 | 89 | –

Row | SMILES | inhibition at 1 µg/mL (LTD4 [1]) [%] | inhibition at 10 µg/mL (LTC4) [%] | also measured
23 | CCCc1cc(O)ccc1OCCCNc1cnn(C(C)C)c(=O)c1Cl [compound 109] | 69 | 99 | –
24 | CCCCc1cc(C(=O)OC)ccc1OCCCNc1cnn(CC)c(=O)c1Cl [compound 111] | 79 | 87 | –
25 | CCCCc1cc(C(=O)O)ccc1OCCCNc1cnn(CC)c(=O)c1Cl [compound 113] | 54 | 100 | –
26 | CCCCc1cc(C(N)=O)ccc1OCCCNc1cnn(CC)c(=O)c1Cl [compound 115] | 61 | 94 | –
27 | CCCc1cc(C(=O)O)ccc1OCCCNc1cnn(C(C)C)c(=O)c1Br [compound 125] | 84 | – | –
28 | CCCc1cc(OC)ccc1OCCCNc1cnn(CC)c(=O)c1Br [compound 135] | 57 | – | –
29 | CCc1cc(OC)ccc1OCCCNc1cnn(CC)c(=O)c1Br [compound 137] | 53 | – | –
30 | CCCc1cc(C(=O)OC)ccc1OCC(CNc1cnn(C(C)C)c(=O)c1Cl)OC (stereo not drawn) [compound 162] | – | 81 | Inhibition (%) [2, 4]: 49%
31 | CCCc1cc(C(=O)O)ccc1OCC(CNc1cnn(C(C)C)c(=O)c1Cl)OC (stereo not drawn) [compound 163] | – | 74 | Inhibition (%) [2, 4]: 32%
32 | CCCc1cc(C(=O)OC)ccc1OCC(CN(C)c1cnn(C(C)C)c(=O)c1Cl)OC (stereo not drawn) [compound 164] | – | 71 | Inhibition (%) [2, 4]: 40%
33 | CCCCc1cc(C(=O)OC)ccc1OCCCNc1cnn(CC)c(=O)c1Br [compound 178] | 69 | – | –
34 | CCCCc1cc(C(=O)O)ccc1OCCCNc1cnn(CC)c(=O)c1Br [compound 179] | 63 | – | –
35 | CCCc1cc(O)ccc1OCCCNc1cnn(CC)c(=O)c1Br [compound 197] | 82 | – | –
36 | CCCc1cc(O)ccc1OCCCNc1cnn(C(C)C)c(=O)c1Br [compound 198] | 86 | – | –
37 | CCc1cc(C=O)ccc1OCCCNc1cnn(CC)c(=O)c1Br [compound 199] | 65 | – | –
38 | CCc1cc(C=O)ccc1OCCCNc1cnn(C(C)C)c(=O)c1Br [compound 200] | 81 | – | –
39 | CCCCCc1cc(C(=O)O)ccc1OCCCNc1cnn(CC)c(=O)c1Cl [compound 202] | 89 | – | –
40 | CCCCCc1cc(C(N)=O)ccc1OCCCNc1cnn(CC)c(=O)c1Cl [compound 203] | 94 | – | –
41 | CCCCCc1cc(C(=O)OC)ccc1OCCCNc1cnn(CC)c(=O)c1Br [compound 204] | 95 | – | –
42 | CCCCCc1cc(C(=O)O)ccc1OCCCNc1cnn(CC)c(=O)c1Br [compound 205] | 96 | – | –
43 | CCC(C)c1cc(C(=O)O)ccc1OCCCNc1cnn(CC)c(=O)c1Br (stereo not drawn) [compound 218] | 84 | – | –
